In article PMC6201879, “N-substituted phenylbenzamides of the niclosamide chemotype attenuate obesity related changes in high fat diet fed mice” (PLoS ONE, 2018):
Like-named read-outs stand apart in the source and are kept apart here.

How the values were obtained:
[1] = system: Salmonella typhimurium TA1537
[2] = system: Escherichia coli WP2 uvrA (pKM101)
[3] = system: Salmonella typhimurium TA1535
PH5CH8 liver cells = test: High-throughput hepatic de novo lipogenesis (DNL) assay, high content imaging of steatotic phenotype; format: cell-based, human
[4] = system: Salmonella typhimurium TA98; test: Ames assay, strain TA98; settings: for Mean Revertant Colony Counts TA98 SP9+: with S9
[5] = system: Salmonella typhimurium TA100; settings: for Mean Revertant Colony Counts TA-100 SP9+: with S9
[6] = system: HEK293 cells stably transduced with the human OCT3 transporter; test: Cellular oxygen consumption rate (OCR), MitoXpress Xtra; format: cell-based; settings: HEK293 cells expressing human OCT3
Protocol: Oxygen consumption rate experiments were performed by ZenBio, Inc (RTP, NC). HEK293 cells stably transduced with the human OCT3 transporter were plated in black-walled microclear plates (Greiner-BioOne) at 60,000 cells per well in growth medium. Cells were incubated overnight to allow attachment before growth medium was removed and replaced with 150μL of assay medium containing compound dilutions. Four concentrations of each compound were prepared and transferred to the empty wells. Control wells contained assay medium only or assay medium containing […] (FCCP) at 1μM. Ten μL of MitoXpress Xtra reagent was added to each test well and 100μL of pre-warmed mineral oil was overlaid in each well to create a seal. The plates were immediately read on a FLUOstar Omega (BMG) using dual read Time Resolved Fluorescence (TR-F) for 2 hours, with measurements taken every 2 minutes using 340nm and 650nm as excitation and emission wavelengths respectively. For lifetime analysis, two measurements per well were taken: 1) delay of 30μs, with a window of 30μs; and 2) delay of 70μs with a window of 30μs. Background TRF values were subtracted from all readings. A ratiometric analysis was performed to determine changes in the Lifetime fluorescence signal: Lifetime (μs)[T] = (D2-D1)/ln(W1/W2), where D is delay; W is fluorescence window value at each time point. Lifetime slopes were calculated using each Lifetime measurement over time. Data are presented as mean ± standard error (SE). The differences between the control (DMSO) and compound treated wells were analyzed using the Student’s t-test. A value of p≤0.05 was considered statistically significant. […]

[7] = cited from earlier work
p-AMPK Thr-172 = test: Western blot of p-AMPK Thr-172 in liver of HFD-fed mice; settings: HFD-fed mice; 5 or 25mg/kg IP daily for 12 days
[8] = system: Salmonella typhimurium (TA98, TA100, TA1535 and TA1537) and Escherichia coli (WP2 uvrA (pKM101)); test: Ames assay, overall outcome and cytotoxicity across strains
[9] = system: Escherichia coli WP2 uvrA (pKM101); test: Ames assay, strain WP2 uvrA (pKM101); settings: for Mean Revertant Colony Counts WP2 uvrA (pKM101) SP9+: with S9; for Mean Revertant Colony Counts WP2 uvrA (pKM101) S9-: without S9
[10] = system: fatty acid synthase (FAS); test: Western blot of fatty acid synthase in liver of HFD-fed mice; settings: HFD-fed mice; highest concentration (25mg/kg) IP daily for 12 days
[11] = set-up: method as in PMID 26245118; settings: cited from earlier work
[12] = system: carbonic anhydrase-III (CAIII); settings: HFD fed-DIO mice; cited from earlier work
[13] = system: C57-diet induced obesity (DIO) mouse; test: Glucose tolerance test in DIO mice; format: in vivo; settings: 5mg/kg for 7 days
Protocol: Animals were then treated with 5mg/kg niclosamide or vehicle for 7 days and GTT was performed again.
Glucose tolerance test in DIO mice. 2g/kg of glucose was injected IP and at 15, 30 and 60 min, blood glucose levels were measured.

[14] = any concentration tested, vs negative control

Question: Which “Mean Revertant Colony Counts TA-1537 SP9+” value ([1]; Salmonella typhimurium) does the source give for Nc1ccc2cc3ccccc3cc2c1 [Compound 2-AA, 2-Aminoanthracene, reference compound] here?
Answer: Its value is 11.0.

Question: And the “Mean Revertant Colony Counts WP2 uvrA (pKM101) SP9+” value [2]?
Answer: The value was 345.3.

Question: What about the “Mean Revertant Colony Counts TA-1535 SP9+” value ([3]; Salmonella typhimurium) of the same compound?
Answer: Its value is 24.0.

Question: With O=C(Nc1ccc([N+](=O)[O-])cc1Cl)c1cc(Cl)ccc1O [Niclosamide] as the compound, how does the IC50 (PH5CH8 liver cells; Homo sapiens, PH5CH8 liver cells, 10-point dose response between 1μM and 1.9nM, read-out: IC50 (uM), inhibition of steatotic phenotype in DNL assay) read?
Answer: The IC50 was 0.02 µM.

Question: What about the “reduced steatosis (steatotic phenotype in DNL assay)” value (PH5CH8 liver cells; PH5CH8, assay validation) of the same compound?
Answer: Its value is 77 ±12%.

Question: And the “Mean Revertant Colony Counts TA98 SP9+” value ([4]; 1.5 ug/Well)?
Answer: The value was 52.0.

Question: And the “Mean Revertant Colony Counts TA98 S9-” value ([4]; 1.5 ug/Well, without S9)?
Answer: Its value is 1.5.

Question: What about the “Mean Revertant Colony Counts TA98 SP9+” value ([4]; 4 ug/Well) of the same compound?
Answer: Its value is 108.3.

Question: What about the “Mean Revertant Colony Counts TA98 SP9+” value ([4]; 10 ug/Well) of the same compound?
Answer: The value was 194.7.

Question: And the “fold increase in the mean number of revertant colonies, TA98” value ([4]; 1.5, 4 and 10 μg/well in the presence of S9 mix)?
Answer: Its value is no less than 2 fold.

Question: And the “Mean Revertant Colony Counts TA-1537 SP9+” value ([1]; 1.5 ug/Well, with S9)?
Answer: Its value is 1.7.

Question: And the “Mean Revertant Colony Counts TA-1537 SP9+” value ([1]; 4 ug/Well, with S9)?
Answer: The value was 2.0.

Question: And the “Mean Revertant Colony Counts TA-1537 SP9+” value ([1]; 10 ug/Well, with S9)?
Answer: Its value is 0.7.

Question: And the “fold increase in the mean number of revertant colonies, TA1537” value [1, 14]?
Answer: The value was less than 3 fold.

Question: And the “Mean Revertant Colony Counts TA-100 SP9+” value ([5]; 1.5 ug/Well)?
Answer: Its value is 19.3.

Question: And the “Mean Revertant Colony Counts TA-100 S9-” value ([5]; 1.5 ug/Well, without S9)?
Answer: The value was 9.3.

Question: What about the “Mean Revertant Colony Counts TA-100 SP9+” value ([5]; 4 ug/Well) of the same compound?
Answer: The value was 36.7.

Question: And the “Mean Revertant Colony Counts TA-100 SP9+” value ([5]; 10 ug/Well)?
Answer: The value was 23.3.

Question: And the “Mean Revertant Colony Counts TA-100 SP9+” value ([5]; 25 ug/Well)?
Answer: Its value is 2.3.

Question: And the “fold increase in the mean number of revertant colonies, TA100” value [5, 14]?
Answer: The value was less than 2 fold.

Question: And the “change in respiration / oxygen consumption rate (OCR)” value ([6]; compared to DMSO control, 2 hours)?
Answer: Its value is “increased OCR”.

Question: What about the “concentration dependence of OCR change” value ([6]; four concentrations) of the same compound?
Answer: The value was “dose dependent increase in OCR”.

Question: And the “peak plasma concentration (Cmax)” value ([7]; 5mg/kg oral dose in rats)?
Answer: The value was 354 ng/mL.

Question: What about the half-life ([7]; rat, in vivo, po, 5 mg/kg) of the same compound?
Answer: The half-life was 6.7 h.

Question: And the “p-AMPK Thr-172 in liver” value (p-AMPK Thr-172)?
Answer: Its value is “significantly upregulated”.

Question: And the “Ames assay outcome (mutagenicity)” value [8]?
Answer: The value was “positive”.

Question: And the “concentration with significant cytotoxicity, strains TA98, TA100, TA1535 and TA1537” value ([8]; in the absence of the S9 mix)?
Answer: Its value is no less than 1.5 μg /well.

Question: What about the “concentration with significant cytotoxicity, strains TA98, TA100, TA1535 and TA1537” value ([8]; in the presence of S9 mix) of the same compound?
Answer: Its value is no less than 10 μg /well.

Question: And the “Mean Revertant Colony Counts WP2 uvrA (pKM101) SP9+” value ([9]; 1.5 ug/Well)?
Answer: Its value is 36.7.

Question: And the “Mean Revertant Colony Counts WP2 uvrA (pKM101) S9-” value ([9]; 1.5 ug/Well)?
Answer: The value was 17.3.

Question: What about the “Mean Revertant Colony Counts WP2 uvrA (pKM101) SP9+” value ([9]; 4 ug/Well) of the same compound?
Answer: The value was 44.0.

Question: And the “Mean Revertant Colony Counts WP2 uvrA (pKM101) S9-” value ([9]; 4 ug/Well)?
Answer: The value was 20.7.

Question: And the “Mean Revertant Colony Counts WP2 uvrA (pKM101) SP9+” value ([9]; 10 ug/Well)?
Answer: The value was 34.0.

Question: What about the “Mean Revertant Colony Counts WP2 uvrA (pKM101) S9-” value ([9]; 10 ug/Well) of the same compound?
Answer: The value was 19.3.

Question: What about the “Mean Revertant Colony Counts WP2 uvrA (pKM101) SP9+” value ([9]; 25 ug/Well) of the same compound?
Answer: The value was 31.7.

Question: And the “Mean Revertant Colony Counts WP2 uvrA (pKM101) S9-” value ([9]; 25 ug/Well)?
Answer: The value was 14.7.

Question: What about the “Mean Revertant Colony Counts WP2 uvrA (pKM101) SP9+” value ([9]; 64 ug/Well) of the same compound?
Answer: Its value is 27.0.

Question: And the “Mean Revertant Colony Counts WP2 uvrA (pKM101) S9-” value ([9]; 64 ug/Well)?
Answer: Its value is 22.7.

Question: What about the “Mean Revertant Colony Counts WP2 uvrA (pKM101) SP9+” value ([9]; 160 ug/Well) of the same compound?
Answer: The value was 24.7.

Question: And the “Mean Revertant Colony Counts WP2 uvrA (pKM101) S9-” value ([9]; 160 ug/Well)?
Answer: Its value is 17.7.

Question: And the “Mean Revertant Colony Counts WP2 uvrA (pKM101) SP9+” value ([9]; 400 ug/Well)?
Answer: The value was 14.7.

Question: What about the “Mean Revertant Colony Counts WP2 uvrA (pKM101) S9-” value ([9]; 400 ug/Well) of the same compound?
Answer: The value was 17.7.

Question: What about the “Mean Revertant Colony Counts WP2 uvrA (pKM101) SP9+” value ([9]; 1000 ug/Well) of the same compound?
Answer: The value was 14.7.

Question: What about the “Mean Revertant Colony Counts WP2 uvrA (pKM101) S9-” value ([9]; 1000 ug/Well) of the same compound?
Answer: Its value is 14.0.

Question: What about the “fold increase in the mean number of revertant colonies, WP2 uvrA (pKM101)” value [9, 14] of the same compound?
Answer: Its value is less than 2 fold.

Question: And the “concentration with significant cytotoxicity, WP2 uvrA (pKM101)” value ([9]; both in the presence and absence of S9 mix)?
Answer: Its value is no less than 400 μg /well.

Question: And the “expression of fatty acid synthase (FAS) in liver” value [10]?
Answer: The value was “significant reduction”.

Question: And the half-life [11]?
Answer: The half-life was 6.7 h.

Question: What about the “Mean Revertant Colony Counts TA-1535 SP9+” value ([3]; 1.5 ug/Well, with S9) of the same compound?
Answer: Its value is 3.3.

Question: What about the “Mean Revertant Colony Counts TA-1535 SP9+” value ([3]; 4 ug/Well, with S9) of the same compound?
Answer: The value was 3.7.

Question: And the “fold increase in the mean number of revertant colonies, TA1535” value [3, 14]?
Answer: The value was less than 3 fold.

Question: What about the “carbonic anhydrase-III (CAIII) hepatic protein” value [12] of the same compound?
Answer: Its value is “down regulated”.

Question: What about the “blood glucose levels at 60 minutes, glucose tolerance test” value ([13]; 2g/kg glucose IP) of the same compound?
Answer: Its value is 250 mg/dL.

Question: And the “plasma glucose levels after the 7-day treatment period” value ([13]; pre-treatment approximately 400mg/dL)?
Answer: The value was roughly 275 mg/dL.
